From patent US6054435A, “6-O-substituted macrolides having antibacterial activity” (priority 1999, dated 2000)
In brackets after ≈: the same amount, converted by molar mass.

Assays:
Experiment in all cases: in vitro antibacterial activity (MIC), agar dilution
Assay type in all cases: cell-based
[1] = test system: Streptococcus pyogenes EES61; conditions: organism code LL; BHI agar, 35-37° C., 20 to 24 hours; unit assumed
Procedure, shortened: (§1)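 Agar dilution on BHI agar with twelve successive compound dilutions; plates inoculated by Steers replicator with 1:100 culture dilutions (1:10 for slow growers such as Streptococcus). MIC is the lowest concentration giving no growth, slight haze or sparse colonies versus a drug-free control.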

[2] = test system: Streptococcus pyogenes 930; conditions: organism code MM; BHI agar, 35-37° C., 20 to 24 hours; unit assumed
Procedure, shortened: as §1

[3] = test system: Streptococcus Pneumonia 5649; conditions: organism code ZZA; BHI agar, 35-37° C., 20 to 24 hours; unit assumed
Procedure, shortened: as §1

[4] = test system: Streptococcus agalactiae CMX 508; conditions: organism code KK; BHI agar, 35-37° C., 20 to 24 hours; unit assumed
Procedure, shortened: as §1

Escherichia coli SS = conditions: organism code RR; BHI agar, 35-37° C., 20 to 24 hours; unit assumed
Procedure, shortened: as §1

[5] = test system: Streptococcus bovis A-5169; conditions: organism code JJ; BHI agar, 35-37° C., 20 to 24 hours; unit assumed
Procedure, shortened: as §1

[6] = test system: Staphylococcus aureus ATCC 6538P; conditions: organism code AA; BHI agar, 35-37° C., 20 to 24 hours; unit assumed
Procedure, shortened: as §1

[7] = test system: Streptococcus pyogenes PIU 2548; conditions: organism code NN; BHI agar, 35-37° C., 20 to 24 hours; unit assumed
Procedure, shortened: as §1

Candida albicans CCH 442 = conditions: organism code TT; BHI agar, 35-37° C., 20 to 24 hours; unit assumed
Procedure, shortened: as §1

[8] = test system: Nocardia Asteroides ATCC9970; conditions: organism code VV; BHI agar, 35-37° C., 20 to 24 hours; unit assumed
Procedure, shortened: as §1

[9] = test system: Streptococcus Pneumonia 5979; conditions: organism code ZZ; BHI agar, 35-37° C., 20 to 24 hours; unit assumed
Procedure, shortened: as §1

Escherichia coli DC-2 = conditions: organism code SS; BHI agar, 35-37° C., 20 to 24 hours; unit assumed
Procedure, shortened: as §1

[10] = test system: Staphylococcus aureus 1775; conditions: organism code GG; BHI agar, 35-37° C., 20 to 24 hours; unit assumed
Procedure, shortened: as §1

[11] = test system: Staphylococcus aureus A-5278; conditions: organism code CC; BHI agar, 35-37° C., 20 to 24 hours; unit assumed
Procedure, shortened: as §1

[12] = test system: Staphylococcus aureus NCTC10649M; conditions: organism code EE; BHI agar, 35-37° C., 20 to 24 hours; unit assumed
Procedure, shortened: as §1

Escherichia coli JUHL = conditions: organism code QQ; BHI agar, 35-37° C., 20 to 24 hours; unit assumed
Procedure, shortened: as §1

[13] = test system: Streptococcus Pneumonia ATCC6303; conditions: organism code XX; BHI agar, 35-37° C., 20 to 24 hours; unit assumed
Procedure, shortened: as §1

[14] = test system: Haemophilis Influenzae DILL AMP R; conditions: organism code WW; BHI agar, 35-37° C., 20 to 24 hours; unit assumed
Procedure, shortened: as §1

[15] = test system: Streptococcus Pneumonia GYR 1171; conditions: organism code YY; BHI agar, 35-37° C., 20 to 24 hours; unit assumed
Procedure, shortened: as §1

[16] = test system: Staphylococcus aureus CMX 642A; conditions: organism code DD; BHI agar, 35-37° C., 20 to 24 hours; unit assumed
Procedure, shortened: as §1

[17] = test system: Mycobacterium smegmatis ATCC 114; conditions: organism code UU; BHI agar, 35-37° C., 20 to 24 hours; unit assumed
Procedure, shortened: as §1

[18] = test system: Staphylococcus epidermidis 3519; conditions: organism code HH; BHI agar, 35-37° C., 20 to 24 hours; unit assumed
Procedure, shortened: as §1

[19] = test system: Staphylococcus aureus CMX 553; conditions: organism code FF; BHI agar, 35-37° C., 20 to 24 hours; unit assumed
Procedure, shortened: as §1

[20] = test system: Micrococcus luteus ATCC 9341; conditions: organism code OO; BHI agar, 35-37° C., 20 to 24 hours; unit assumed
Procedure, shortened: (§2)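 Agar dilution in BHI agar, twelve successive compound dilutions. Inoculum 1:100, or 1:10 for slow-growing strains (e.g. Streptococcus), replicator-spotted. Read by eye; MIC = lowest concentration with no growth, slight haze or sparsely isolated colonies relative to growth control.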

[21] = test system: Enterococcus faecium ATCC 8043; conditions: organism code II; BHI agar, 35-37° C., 20 to 24 hours; unit assumed
Procedure, shortened: as §1

[22] = test system: Staphylococcus aureus A5177; conditions: organism code BB; BHI agar, 35-37° C., 20 to 24 hours; unit assumed
Procedure, shortened: as §1

[23] = test system: Micrococcus luteus ATCC 4698; conditions: organism code PP; BHI agar, 35-37° C., 20 to 24 hours; unit assumed
Procedure, shortened: as §2

Row | Structure (SMILES) | MIC [1] [mg/L] | MIC [2] [mg/L] | MIC [3] [mg/L] | MIC [4] [mg/L] | MIC (Escherichia coli SS) [mg/L] | MIC [5] [mg/L] | MIC [6] [mg/L] | MIC [7] [mg/L] | MIC (Candida albicans CCH 442) [mg/L] | MIC [8] [mg/L] | MIC [9] [mg/L] | MIC (Escherichia coli DC-2) [mg/L] | MIC [10] [mg/L] | MIC [11] [mg/L] | MIC [12] [mg/L] | MIC (Escherichia coli JUHL) [mg/L] | MIC [13] [mg/L] | MIC [14] [mg/L] | MIC [15] [mg/L] | MIC [16] [mg/L] | further results
1 | CC[C@H]1OC(=O)[C@H](C)C(=O)[C@H](C)[C@@H](O[C@@H]2O[C@H](C)C[C@H](N(C)C)[C@H]2O)[C@](C)(OCC#Cc2ccc(-c3cccs3)s2)C[C@@H](C)C(=O)[C@H](C)[C@H]2NC(=O)O[C@@]21C [Example 25] | 0.005 (≈ 0.00624 µM) | 1.56 (≈ 1.95 µM) | 0.125 (≈ 0.156 µM) | 0.1 (≈ 0.125 µM) | 0.2 (≈ 0.25 µM) | 0.1 (≈ 0.125 µM) | 0.2 (≈ 0.25 µM) | 0.2 (≈ 0.25 µM) | 12.5 (≈ 15.6 µM) | 0.39 (≈ 0.487 µM) | 0.25 (≈ 0.312 µM) | > 100 | 25 (≈ 31.2 µM) | 25 (≈ 31.2 µM) | 0.2 (≈ 0.25 µM) | 100 (≈ 125 µM) | ≤ 0.004 | 2 (≈ 2.5 µM) | ≤ 0.004 | 0.2 (≈ 0.25 µM) | MIC [17]: 0.39 mg/L (≈ 0.487 µM); MIC [18]: 0.1 mg/L (≈ 0.125 µM); MIC [19]: 0.1 mg/L (≈ 0.125 µM); MIC [20]: 0.05 mg/L (≈ 0.0624 µM); MIC [21]: 0.1 mg/L (≈ 0.125 µM); MIC [22]: 0.1 mg/L (≈ 0.125 µM); MIC [23]: 0.2 mg/L (≈ 0.25 µM)
2 | CCOC(=O)c1cncc(-c2ccc(C#CCO[C@]3(C)C[C@@H](C)C(=O)[C@H](C)[C@H]4NC(=O)O[C@]4(C)[C@@H](CC)OC(=O)[C@H](C)C(=O)[C@H](C)[C@H]3O[C@@H]3O[C@H](C)C[C@H](N(C)C)[C@H]3O)s2)c1 [Example 10] | 0.01 (≈ 0.0115 µM) | 50 (≈ 57.6 µM) | 0.5 (≈ 0.576 µM) | 0.01 (≈ 0.0115 µM) | 0.78 (≈ 0.899 µM) | 0.005 (≈ 0.00576 µM) | 0.1 (≈ 0.115 µM) | 0.2 (≈ 0.23 µM) | > 100 | 0.1 (≈ 0.115 µM) | 4 (≈ 4.61 µM) | > 100 | > 100 | > 100 | 0.2 (≈ 0.23 µM) | > 100 | 0.03 (≈ 0.0346 µM) | 8 (≈ 9.22 µM) | 0.03 (≈ 0.0346 µM) | 0.1 (≈ 0.115 µM) | MIC [17]: 1.56 mg/L (≈ 1.8 µM); MIC [18]: 0.2 mg/L (≈ 0.23 µM); MIC [19]: 0.05 mg/L (≈ 0.0576 µM); MIC [20]: 0.01 mg/L (≈ 0.0115 µM); MIC [21]: 0.1 mg/L (≈ 0.115 µM); MIC [22]: 0.1 mg/L (≈ 0.115 µM); MIC [23]: 0.2 mg/L (≈ 0.23 µM)
3 | CC[C@H]1OC(=O)[C@H](C)C(=O)[C@H](C)[C@@H](O[C@@H]2O[C@H](C)C[C@H](N(C)C)[C@H]2O)[C@](C)(OCC#Cc2ccc(-c3cccc([N+](=O)[O-])c3)s2)C[C@@H](C)C(=O)[C@H](C)[C@H]2NC(=O)O[C@@]21C [Example 21] | 0.02 (≈ 0.0238 µM) | 0.78 (≈ 0.929 µM) | 0.5 (≈ 0.595 µM) | 0.02 (≈ 0.0238 µM) | 0.2 (≈ 0.238 µM) | 0.02 (≈ 0.0238 µM) | 0.1 (≈ 0.119 µM) | 0.2 (≈ 0.238 µM) | > 100 | 0.2 (≈ 0.238 µM) | 2 (≈ 2.38 µM) | > 100 | 100 (≈ 119 µM) | > 100 | 0.1 (≈ 0.119 µM) | > 100 | 0.03 (≈ 0.0357 µM) | 8 (≈ 9.52 µM) | 0.03 (≈ 0.0357 µM) | 0.05 (≈ 0.0595 µM) | MIC [17]: 0.2 mg/L (≈ 0.238 µM); MIC [18]: 0.2 mg/L (≈ 0.238 µM); MIC [19]: 0.05 mg/L (≈ 0.0595 µM); MIC [20]: 0.02 mg/L (≈ 0.0238 µM); MIC [21]: 0.05 mg/L (≈ 0.0595 µM); MIC [22]: 0.05 mg/L (≈ 0.0595 µM); MIC [23]: 0.05 mg/L (≈ 0.0595 µM)
